US20240181068A1, “SELECTIVE NEUTRAL PH INHIBITOR OF CATHEPSIN B” (The Regents of the University of California, priority 2021, published 2024)
“Also recorded” adds a separate entry of the source.

Tests used:
Type in all cases: biochemical
cathepsin K = biological target: T1, cathepsin K (Homo sapiens, UniProt P43235); assay: Specificity of inhibitors: cathepsin K (Z-Phe-Arg-AMC substrate)
T1 construct: purchased Abcam ab157067
T1 sequence (P43235 115-329): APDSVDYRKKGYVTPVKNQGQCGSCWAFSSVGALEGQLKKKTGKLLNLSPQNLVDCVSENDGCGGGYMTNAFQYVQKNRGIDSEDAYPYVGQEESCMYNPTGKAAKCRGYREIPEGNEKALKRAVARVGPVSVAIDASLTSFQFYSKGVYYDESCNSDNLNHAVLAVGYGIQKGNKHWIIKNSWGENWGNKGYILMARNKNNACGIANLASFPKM
Description: (§1) Specificity of inhibitors for other cysteine cathepsin proteases. The effects of Z-Arg-Lys-AOMK and Z-Glu-Lys-AOMK on cathepsin V, L, K, S, X, H and C activities were assessed. IC50 values were calculated at pH 4.6 and pH 7.2 conditions, consisting of 40 mM citrate phosphate, 1 mM EDTA, 100 mM NaCl, and 5 mM DTT. The inhibitor concentrations ranged from 16.38 μM to 256 nM with 2-fold serial dilutions. […] Cathepsin V (0.04 ng/μL), cathepsin L (0.03 ng/μL), cathepsin K (0.10 ng/μL), cathepsin S (0.20 ng/uL) were assayed with 40 μM Z-Phe-Arg-AMC. Cathepsin X (0.20 ng/uL), cathepsin C (0.51 ng/uL) and cathepsin H (0.1 ng/μL) were assayed with 40 μM of MCA-Arg-Pro-Pro-Gly-Phe-Ser-Ala-Phe-Lys(Dnp)OH (SEQ ID NO: 2), Gly-Arg-AMC, and Arg-AMC, respectively. Activation of pro-cathepsin H to cathepsin H was conducted by incubation of cathepsin H (4.4 ng/μL) with cathepsin L (1.1 ng/μL) at RT for 2 hrs in activation buffer (20 mM citrate phosphate pH 6.0, 100 mM NaCl, and 5 mM DTT). Cathepsin C (13.78 ng/μL) was activated by incubation with cathepsin L (3.4 ng/μL) at RT for one hr in activation buffer (20 mM citrate phosphate, pH 6.0, 100 mM NaCl, 5 mM DTT). […] For all assays containing peptide-AMC substrates the fluorescent microplate reader settings were the same as outlined above for cathepsin B. For the cathepsin X assay, the plate reader was set to excitation 320 nm, emission 400 nm, gain 105, top optics and read height 1 mm. To convert RFU/s to picomol/min, 10 μM to 0.005 μM (2-fold serial dilution) of MCA-Arg-Pro-Pro-Gly-Phe-Ser-Ala-Phe-Lys(Dnp)OH (SEQ ID NO: 2) was fully hydrolyzed with excess cathepsin X and a standard curve was generated using the total fluorescence values calculated at each concentration.

cathepsin L = biological target: T2, cathepsin L (Homo sapiens, UniProt P07711); assay: Specificity of inhibitors: cathepsin L (Z-Phe-Arg-AMC substrate)
T2 construct: purchased R&D Systems 952-CY-010
T2 sequence (P07711 114-333): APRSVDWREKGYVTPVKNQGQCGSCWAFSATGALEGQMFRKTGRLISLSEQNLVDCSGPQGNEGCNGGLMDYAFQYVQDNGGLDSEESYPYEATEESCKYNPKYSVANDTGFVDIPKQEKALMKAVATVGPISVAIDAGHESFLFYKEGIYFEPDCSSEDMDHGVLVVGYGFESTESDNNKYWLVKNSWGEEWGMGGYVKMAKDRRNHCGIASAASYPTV
Description: as §1

cathepsin X = cathepsin X (Homo sapiens, UniProt Q9UBR2); assay: Specificity of inhibitors: cathepsin X (MCA peptide substrate)
cathepsin X, sequence (Q9UBR2 62-303): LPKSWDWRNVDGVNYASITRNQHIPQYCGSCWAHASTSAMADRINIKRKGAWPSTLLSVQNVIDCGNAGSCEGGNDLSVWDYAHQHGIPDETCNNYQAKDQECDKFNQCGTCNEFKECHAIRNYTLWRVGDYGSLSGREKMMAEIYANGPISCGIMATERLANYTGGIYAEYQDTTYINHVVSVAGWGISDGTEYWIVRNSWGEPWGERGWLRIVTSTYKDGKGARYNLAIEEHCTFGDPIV
Description: as §1

cathepsin B = biological target: T3, cathepsin B (Homo sapiens, UniProt P07858); assay: Inhibition of peptide library cleavages characterized by MSP-MS; conditions: 64 nM inhibitor
T3 construct: purchased R&D Systems 953-CY-010
Description: Cathepsin B cleavage site analysis by multiplex substrate profiling by mass spectrometry (MSP-MS). Cathepsin B activity (activated) was titrated with E64c to calculate the concentration of active cathepsin B. For MSP-MS assays, cathepsin B (0.1 ng/μL, activated) was incubated with a peptide library of 228 14-mer peptides, each at 0.5 μM peptide, in buffer consisting of 50 mM citrate phosphate of pH 7.2 or pH 4.6, 1 mM EDTA, 100 mM NaCl and 4 mM DTT (total volume of 46 μL). After incubation for […] at 25° C., 20 μL aliquots were removed and combined with 80 μL of 8 M urea. An inactivated cathepsin B control consisted of cathepsin B in assay buffer combined with 8 M urea for 60 minutes at 25° C. for denaturation, followed by addition of the peptide library. After incubation, samples were acidified by addition of 40 μL of 2% FA, desalted using C18 LTS Tips (Rainin), evaporated to dryness in a vacuum centrifuge, and stored at −70° C. Samples were resuspended in 20 μL of 0.1% FA (solvent A) and 1 μL was used for LC-MS/MS analysis. All MSP-MS conditions were conducted in quadruplicate assays.
Inhibitor inhibition of peptide cleavages characterized by MSP-MS. […]

- IC50 (cathepsin K; cathepsin K, pH 4.6): > 16 µM
- IC50 (cathepsin K; cathepsin K, pH 7.2): > 16 µM
- inhibition at 16 µM (cathepsin K; cathepsin K, pH 7.2, 16,000 nM inhibitor): 31%
- inhibition of cathepsin K (cathepsin K; pH 4.6, inhibitor at 16 μM): no inhibition
- inhibition of cathepsin K (cathepsin K; pH 7.2, inhibitor at 16 μM): minimally inhibited
- IC50 (cathepsin L; cathepsin L, pH 4.6): > 16 µM
- inhibition at 16 µM (cathepsin L; cathepsin L, pH 4.6, 16,000 nM inhibitor): 32%
- inhibition of cathepsin L (cathepsin L; pH 4.6, inhibitor at 16 μM): minimal inhibition
- IC50 (cathepsin X; cathepsin X, pH 4.6): > 16 µM
- inhibition at 16 µM (cathepsin X; cathepsin X, pH 4.6, 16,000 nM inhibitor): 21%
- inhibition of cathepsin X (cathepsin X; pH 4.6, inhibitor at 16 μM): minimal inhibition
Compound: Cc1cccc(C)c1C(=O)OCC(=O)C(CCCCN)NC(=O)C(CCCNC(=N)N)NC(=O)OCc1ccccc1 (stereo not drawn) [Z-Arg-Lys-AOMK]
- inhibition of cathepsin B cleavage of peptide library substrates (cathepsin B; pH 4.6): does not inhibit; also recorded: did not inhibit
- inhibition of cathepsin B cleavage of peptide library substrates (cathepsin B; pH 7.2, 1 hr incubation): inhibits; also recorded: completely inhibited
